According to ChEMBL document CHEMBL1909046, “DrugMatrix in vitro pharmacology data”:

Assays:
B2 bradykinin receptor = target: T1, B2 bradykinin receptor (Homo sapiens, UniProt P30411); assay type: cell membranes, Membrane; settings: chem-1; further: in other assays of this panel Not Active means under 50% inhibition at 10 µM
T1 sequence (P30411 whole entry): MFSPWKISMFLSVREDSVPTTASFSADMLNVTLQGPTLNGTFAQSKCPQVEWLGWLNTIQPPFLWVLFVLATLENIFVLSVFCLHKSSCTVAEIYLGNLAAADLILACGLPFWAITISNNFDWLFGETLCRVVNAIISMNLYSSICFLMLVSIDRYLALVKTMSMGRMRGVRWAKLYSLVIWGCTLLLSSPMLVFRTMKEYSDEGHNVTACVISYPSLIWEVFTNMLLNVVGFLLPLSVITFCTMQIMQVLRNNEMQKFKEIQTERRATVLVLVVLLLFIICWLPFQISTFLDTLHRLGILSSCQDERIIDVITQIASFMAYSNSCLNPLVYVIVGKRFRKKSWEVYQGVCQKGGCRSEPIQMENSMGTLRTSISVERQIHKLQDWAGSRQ

[1] = target: T2, Vasoactive intestinal polypeptide receptor 1 (Homo sapiens, UniProt P32241); assay type: cell membranes, Membrane; settings: ht-29; further: in other assays of this panel Not Active means under 50% inhibition at 10 µM
T2 sequence (P32241 whole entry): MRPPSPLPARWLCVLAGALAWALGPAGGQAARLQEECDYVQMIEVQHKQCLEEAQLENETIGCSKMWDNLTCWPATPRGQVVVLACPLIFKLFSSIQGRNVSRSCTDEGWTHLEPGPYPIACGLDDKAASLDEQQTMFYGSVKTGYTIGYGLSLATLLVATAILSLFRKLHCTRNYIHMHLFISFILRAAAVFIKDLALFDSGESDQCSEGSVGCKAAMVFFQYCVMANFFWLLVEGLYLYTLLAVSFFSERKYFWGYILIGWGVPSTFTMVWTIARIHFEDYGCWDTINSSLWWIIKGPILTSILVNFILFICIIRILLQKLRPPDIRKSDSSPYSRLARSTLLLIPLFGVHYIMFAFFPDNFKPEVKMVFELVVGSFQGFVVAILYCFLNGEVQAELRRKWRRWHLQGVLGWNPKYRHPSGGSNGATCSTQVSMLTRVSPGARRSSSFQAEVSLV

[2] = DRUGMATRIX: GABAA, Muscimol, Central radioligand binding (ligand: [3H] Muscimol); assay type: cell membranes, Rattus norvegicus, Wistar, Brain, Membrane; settings: Not Active = under 50% inhibition at 10 µM
Nitric oxide synthase 1 = Nitric oxide synthase 1 (Rattus norvegicus, UniProt P29476); assay type: tissue-based, Cerebellum; further: in other assays of this panel Not Active means under 50% inhibition at 10 µM
[3] = DRUGMATRIX: Phosphodiesterase PDE3 enzyme inhibition (substrate: [3H]cAMP + cAMP); assay type: tissue-based, Homo sapiens; settings: platelet; Not Active = under 50% inhibition at 10 µM
[4] = target: Tyrosine-protein kinase Fyn (Homo sapiens, UniProt P06241); assay: biochemical; assay type: cell-based, Insect cells;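 further: enzymatic inhibition of Fyn kinase activity measured with Poly(Glu:Tyr) as the phosphorylation substrate; in other assays of this panel Not Active means under 50% inhibition at 10 µM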
[5] = target: Tyrosine-protein kinase Lck (Homo sapiens, UniProt P06239); assay: DRUGMATRIX: Protein Tyrosine Kinase, LCK enzyme inhibition (substrate: Poly(Glu:Tyr)); assay type: cell-based, Insect cells; settings: Not Active = under 50% inhibition at 10 µM
Glucocorticoid receptor = target: T3, Glucocorticoid receptor (Homo sapiens, UniProt P04150); settings: hela s3; further: in other assays of this panel Not Active means under 50% inhibition at 10 µM
T3 sequence (P04150 whole entry): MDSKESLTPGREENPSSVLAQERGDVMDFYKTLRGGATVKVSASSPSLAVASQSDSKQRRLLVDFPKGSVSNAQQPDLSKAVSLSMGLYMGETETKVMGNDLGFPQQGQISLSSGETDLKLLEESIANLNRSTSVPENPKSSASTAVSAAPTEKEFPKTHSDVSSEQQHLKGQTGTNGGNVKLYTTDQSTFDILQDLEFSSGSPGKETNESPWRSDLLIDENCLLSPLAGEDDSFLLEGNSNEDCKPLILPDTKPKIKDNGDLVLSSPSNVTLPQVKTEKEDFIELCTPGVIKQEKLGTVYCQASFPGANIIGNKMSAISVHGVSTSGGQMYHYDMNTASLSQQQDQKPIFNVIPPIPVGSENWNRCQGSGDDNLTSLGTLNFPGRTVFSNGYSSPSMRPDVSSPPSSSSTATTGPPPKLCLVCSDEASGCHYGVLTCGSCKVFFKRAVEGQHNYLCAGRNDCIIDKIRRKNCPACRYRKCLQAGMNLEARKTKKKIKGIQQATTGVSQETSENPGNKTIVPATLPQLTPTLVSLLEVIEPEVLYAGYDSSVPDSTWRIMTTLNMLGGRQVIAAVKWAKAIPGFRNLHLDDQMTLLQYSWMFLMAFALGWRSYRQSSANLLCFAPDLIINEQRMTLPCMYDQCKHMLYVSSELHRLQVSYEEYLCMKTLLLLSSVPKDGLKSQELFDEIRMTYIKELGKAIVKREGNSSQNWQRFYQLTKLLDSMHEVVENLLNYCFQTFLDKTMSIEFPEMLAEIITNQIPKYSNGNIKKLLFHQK

Tyrosine-protein kinase Fyn, sequence (P06241 whole entry): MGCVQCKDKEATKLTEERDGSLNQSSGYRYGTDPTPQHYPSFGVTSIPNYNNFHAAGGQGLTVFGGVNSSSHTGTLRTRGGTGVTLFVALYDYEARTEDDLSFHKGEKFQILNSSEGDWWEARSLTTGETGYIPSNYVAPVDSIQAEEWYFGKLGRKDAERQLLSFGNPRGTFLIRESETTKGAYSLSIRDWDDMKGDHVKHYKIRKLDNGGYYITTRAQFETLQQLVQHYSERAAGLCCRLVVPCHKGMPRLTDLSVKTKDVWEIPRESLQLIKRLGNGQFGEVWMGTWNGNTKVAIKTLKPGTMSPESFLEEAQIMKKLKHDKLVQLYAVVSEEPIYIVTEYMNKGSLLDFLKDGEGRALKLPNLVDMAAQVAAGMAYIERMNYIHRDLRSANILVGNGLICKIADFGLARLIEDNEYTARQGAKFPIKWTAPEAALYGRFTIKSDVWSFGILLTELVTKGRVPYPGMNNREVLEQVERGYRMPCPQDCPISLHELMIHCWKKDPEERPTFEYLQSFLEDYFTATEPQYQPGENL
Nitric oxide synthase 1, sequence (P29476 whole entry): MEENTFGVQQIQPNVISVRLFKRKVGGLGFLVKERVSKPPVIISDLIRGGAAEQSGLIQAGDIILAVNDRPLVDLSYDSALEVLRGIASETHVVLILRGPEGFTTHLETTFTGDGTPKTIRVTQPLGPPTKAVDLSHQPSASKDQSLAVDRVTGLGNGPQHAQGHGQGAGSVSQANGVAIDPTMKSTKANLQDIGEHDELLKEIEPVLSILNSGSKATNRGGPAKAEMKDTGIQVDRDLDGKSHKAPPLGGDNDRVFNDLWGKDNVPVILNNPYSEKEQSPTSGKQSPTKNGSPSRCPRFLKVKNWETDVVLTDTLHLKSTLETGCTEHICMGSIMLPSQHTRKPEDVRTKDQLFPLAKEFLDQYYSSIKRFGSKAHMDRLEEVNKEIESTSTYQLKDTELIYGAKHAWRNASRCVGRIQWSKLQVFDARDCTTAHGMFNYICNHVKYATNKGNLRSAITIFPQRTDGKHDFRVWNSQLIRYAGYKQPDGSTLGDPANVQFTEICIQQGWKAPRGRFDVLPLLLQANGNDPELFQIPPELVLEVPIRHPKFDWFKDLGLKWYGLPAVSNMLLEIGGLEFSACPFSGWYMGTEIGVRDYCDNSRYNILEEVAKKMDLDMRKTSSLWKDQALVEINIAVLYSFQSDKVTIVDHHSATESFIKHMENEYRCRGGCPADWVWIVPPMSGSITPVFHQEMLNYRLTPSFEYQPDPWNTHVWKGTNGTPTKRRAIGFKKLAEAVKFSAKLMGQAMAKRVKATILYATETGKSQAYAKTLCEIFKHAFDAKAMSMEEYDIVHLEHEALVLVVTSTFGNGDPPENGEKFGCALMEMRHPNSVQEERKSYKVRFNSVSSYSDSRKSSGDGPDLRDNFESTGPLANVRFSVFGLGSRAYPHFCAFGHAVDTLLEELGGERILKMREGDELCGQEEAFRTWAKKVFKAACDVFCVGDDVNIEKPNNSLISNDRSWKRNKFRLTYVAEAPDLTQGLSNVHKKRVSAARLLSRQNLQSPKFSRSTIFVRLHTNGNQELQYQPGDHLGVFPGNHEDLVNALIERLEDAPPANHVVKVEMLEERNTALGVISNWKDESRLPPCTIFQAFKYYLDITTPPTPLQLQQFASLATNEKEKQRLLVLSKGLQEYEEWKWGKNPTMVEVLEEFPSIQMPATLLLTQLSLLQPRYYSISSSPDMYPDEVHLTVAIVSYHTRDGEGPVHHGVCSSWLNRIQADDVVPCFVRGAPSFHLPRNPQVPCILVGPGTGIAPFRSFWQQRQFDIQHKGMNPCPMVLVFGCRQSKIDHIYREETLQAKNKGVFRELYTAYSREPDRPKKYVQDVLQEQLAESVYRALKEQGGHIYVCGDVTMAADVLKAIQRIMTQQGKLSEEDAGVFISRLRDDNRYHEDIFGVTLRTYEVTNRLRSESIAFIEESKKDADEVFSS
Tyrosine-protein kinase Lck, sequence (P06239 whole entry): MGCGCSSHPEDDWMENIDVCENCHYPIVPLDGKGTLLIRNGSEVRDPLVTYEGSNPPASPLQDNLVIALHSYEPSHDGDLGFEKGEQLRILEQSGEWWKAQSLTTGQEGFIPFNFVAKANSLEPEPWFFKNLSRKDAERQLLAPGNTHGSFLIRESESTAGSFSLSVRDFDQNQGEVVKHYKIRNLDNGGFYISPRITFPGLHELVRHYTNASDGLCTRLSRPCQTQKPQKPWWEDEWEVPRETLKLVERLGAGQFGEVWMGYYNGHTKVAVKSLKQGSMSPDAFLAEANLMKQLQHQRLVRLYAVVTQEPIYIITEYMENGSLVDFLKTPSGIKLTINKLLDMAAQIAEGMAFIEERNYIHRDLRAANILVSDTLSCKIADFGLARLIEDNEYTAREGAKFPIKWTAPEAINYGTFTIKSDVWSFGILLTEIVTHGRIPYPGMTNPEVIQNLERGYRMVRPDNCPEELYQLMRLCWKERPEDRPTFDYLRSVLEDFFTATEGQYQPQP

Compound	IC50 (B2 bradykinin receptor)	IC50 [1]	IC50 [2]	Ki [2]	IC50 (Nitric oxide synthase 1)	IC50 [3]	Ki [3]	IC50 ([4]; insect cells)	IC50 ([5]; insect cells)	IC50 (Glucocorticoid receptor)	IC50 ([4]; read-out: IC50) [µM]	IC50 ([5]; read-out: IC50) [µM]	Ki (B2 bradykinin receptor)	Ki [1]	Ki (Nitric oxide synthase 1)	Ki ([4]; insect cells)	Ki ([5]; insect cells)	Ki (Glucocorticoid receptor)
CC(C)CN(C[C@@H](O)[C@H](Cc1ccccc1)NC(=O)O[C@H]1CCOC1)S(=O)(=O)c1ccc(N)cc1	Not Active	Not Active	Not Active	Not Active	Not Active	Not Active	Not Active	Not Active	Not Active	Not Active	–	–	–	–	–	–	–	–
c1ccc(Nc2ccc(Nc3ccccc3)cc2)cc1	Not Active	Not Active	Not Active	Not Active	Not Active	Not Active	Not Active	Not Active	Not Active	Not Active	–	–	–	–	–	–	–	–
NC(=O)N1c2ccccc2CCc2ccccc21	Not Active	Not Active	Not Active	Not Active	Not Active	Not Active	Not Active	Not Active	Not Active	Not Active	–	–	–	–	–	–	–	–
O=C1CC[C@@H](N2C(=O)c3ccccc3C2=O)C(=O)N1	Not Active	Not Active	Not Active	Not Active	Not Active	Not Active	Not Active	Not Active	Not Active	Not Active	–	–	–	–	–	–	–	–
Cc1onc(O)c1CC(N)C(=O)O (racemic) [(R,S)-AMPA]	Not Active	Not Active	Not Active	Not Active	Not Active	Not Active	Not Active	Not Active	Not Active	Not Active	–	–	–	–	–	–	–	–
Cc1ccc2cc3c(ccc4ccccc43)c3c2c1CC3 [3-METHYLCHOLANTHRENE]	Not Active	Not Active	Not Active	Not Active	Not Active	Not Active	Not Active	–	–	Not Active	25.2	55.5	–	–	–	–	–	–
CC[C@@]1(O)C[C@H](O[C@H]2C[C@H](N(C)C)[C@H](O[C@H]3C[C@H](O)[C@H](O[C@H]4CCC(=O)[C@H](C)O4)[C@H](C)O3)[C@H](C)O2)c2c(cc3c(c2O)C(=O)c2c(O)cccc2C3=O)[C@H]1C(=O)OC [ACLARUBICIN]	Not Active	Not Active	Not Active	Not Active	Not Active	Not Active	Not Active	Not Active	Not Active	Not Active	–	–	–	–	–	–	–	–
Nc1nc2c(ncn2COCCO)c(=O)[nH]1 [ACYCLOVIR]	Not Active	Not Active	Not Active	Not Active	Not Active	Not Active	Not Active	Not Active	Not Active	Not Active	–	–	–	–	–	–	–	–
Cc1c(C)c2c(c(C)c1O)CC[C@@](C)(CCC[C@H](C)CCC[C@H](C)CCCC(C)C)O2 [ALPHA-TOCOPHEROL]	Not Active	Not Active	Not Active	Not Active	Not Active	Not Active	Not Active	Not Active	Not Active	Not Active	–	–	–	–	–	–	–	–
CN(C)c1nc(N(C)C)nc(N(C)C)n1 [ALTRETAMINE]	Not Active	Not Active	Not Active	Not Active	Not Active	Not Active	Not Active	Not Active	Not Active	Not Active	–	–	–	–	–	–	–	–
Nc1c(Br)cc(Br)cc1CN[C@H]1CC[C@H](O)CC1 [AMBROXOL]	Not Active	Not Active	Not Active	Not Active	Not Active	Not Active	Not Active	Not Active	Not Active	Not Active	–	–	–	–	–	–	–	–
NCCCCCC(=O)O [AMINOCAPROIC ACID]	Not Active	Not Active	Not Active	Not Active	Not Active	Not Active	Not Active	Not Active	Not Active	Not Active	–	–	–	–	–	–	–	–
CCC1(c2ccc(N)cc2)CCC(=O)NC1=O (configuration not stated) [AMINOGLUTETHIMIDE]	Not Active	Not Active	Not Active	Not Active	Not Active	Not Active	Not Active	Not Active	Not Active	Not Active	–	–	–	–	–	–	–	–
Cc1ccc(/N=C/N(C)/C=N/c2ccc(C)cc2C)c(C)c1 [AMITRAZ]	Not Active	Not Active	Not Active	Not Active	Not Active	Not Active	Not Active	Not Active	Not Active	Not Active	–	–	–	–	–	–	–	–
CCOC(=O)C1=C(COCCN)NC(C)=C(C(=O)OC)C1c1ccccc1Cl (configuration not stated) [AMLODIPINE]	Not Active	Not Active	Not Active	Not Active	Not Active	Not Active	Not Active	Not Active	Not Active	Not Active	–	–	–	–	–	–	–	–
COc1ccc(C[C@H]2NC[C@H](O)[C@H]2OC(C)=O)cc1 [ANISOMYCIN]	Not Active	Not Active	Not Active	Not Active	Not Active	Not Active	Not Active	Not Active	Not Active	Not Active	–	–	Not Active	Not Active	Not Active	Not Active	Not Active	Not Active
Nc1ncn([C@@H]2O[C@H](CO)[C@@H](O)[C@H]2O)c(=O)n1 [AZACITIDINE]	Not Active	Not Active	Not Active	Not Active	Not Active	Not Active	Not Active	Not Active	Not Active	Not Active	–	–	–	–	–	–	–	–
CN(C)C(=O)Oc1cc(OC(=O)N(C)C)cc(C(O)CNC(C)(C)C)c1 (configuration not stated) [BAMBUTEROL]	Not Active	Not Active	Not Active	Not Active	Not Active	Not Active	Not Active	Not Active	Not Active	Not Active	–	–	–	–	–	–	–	–
CADMIUM ACETATE	Not Active	Not Active	Not Active	Not Active	Not Active	Not Active	Not Active	–	–	Not Active	–	–	Not Active	Not Active	Not Active	–	–	Not Active
LEAD (II) ACETATE	Not Active	Not Active	Not Active	Not Active	Not Active	Not Active	Not Active	–	Not Active	Not Active	–	–	Not Active	Not Active	Not Active	–	Not Active	Not Active
